In general, EC50 refers to the concentration at which the effect is half-maximal.

This is an account of results in patent US20240391931A1 (Bristol-Myers Squibb Company, priority 2021, published 2024).

The target of experiment [1] is T1, HER2 wildtype (WT) protein (Homo sapiens, UniProt P04626).
T1 construct: BT474 and N87 cell lines which endogenously overexpress the HER2 wildtype (WT) protein; endogenous in cells; host or cells: BT474, N87
Nature of the experiment: HER2 signaling (pHER2 Tyr1248/total HER2 MSD) in BT474 cells. The class given is cell-based. Conditions: 1.5 hr compound, 1% FBS. How it is done:
(§1) In addition to the engineered cell lines, the following cell lines were used: BT474 (human breast carcinoma), N87 (human gastric carcinoma), NCI-H1781 (human lung adenocarcinoma), and A431 (human epidermoid carcinoma); all cell lines were obtained from the American Type Culture Collection (ATCC, Manassas, VA). NCI-H1781 were grown in complete RPMI 1640 (Life Technologies, Carlsbad, CA) supplemented with 15% fetal bovine serum (FBS, Life Technologies, Carlsbad, CA) and 1% Penicillin-Streptomycin (P/S, Life Technologies, Carlsbad, CA). N87 cells were grown in complete RPMI 1640 supplemented with 10% FBS and 1% P/S. BT474 and A431 cells were grown in DMEM (Life Technologies, Carlsbad, CA) supplemented with 10% FBS and 1% P/S. All cells were maintained and propagated in a humidified 5% CO2 incubator at 37° C.
HER2 signaling was assessed in BT474 and N87 cell lines which endogenously overexpress the HER2 wildtype (WT) protein, in NCI-H1781 cells which endogenously expresses a HER2 mutant protein containing a VC insertion in the kinase domain (HER2VC or G776delinsVC), and in engineered cell lines transduced to express the Her2 mutant protein containing the YVMA insertion (Hek293-HER2YVMA and BEAS2B-HER2YVMA).
BT474, N87, and NCI-H1781 were plated in 96-well tissue-culture treated plates (Corning Costar, Sigma-Aldrich) in full media and incubated overnight. Hek293-HER2YVMA and BEAS2B-HER2YVMA cells were plated in 96-well poly-D-lysine treated plates (BD Bioscience, San Jose, CA). For treatment with test compounds, the media was replaced with corresponding low serum media (1% FBS) containing test compound at 1.1, 0.37, 0.12, 0.041, 0.014, 0.005, 0.0014, 0.0005 μM or DMSO control (0.1%). Cells were incubated with compound for 1.5 hr at 37° C. After compound treatment, the media was removed and cells were lysed for 30 min on ice in complete MSD lysis buffer (prepared using MSD base lysis buffer (Meso-Scale Discovery) supplemented with cOmplete, EDTA-free Protease inhibitor cocktail (Roche), Phosphatase Inhibitor Cocktails 2 and 3 (Sigma-Aldrich), and 1 mM PMSF (Sigma-Aldrich)). Lysates were stored at −70° C. until further analysis.
HER2 signaling was evaluated using phospho (Tyr1248)/total ErbB2 whole cell lysate MSD plates (Meso-Scale Discovery, Gaithersburg, MD). The phospho HER2 signal was normalized to total HER2 for each sample; results are reported as % DMSO control. The normalized data was fitted using a sigmoidal curve analysis program (Graph Pad Prism version 6) with variable Hill slope to determine EC50 values.
The HER2 signaling results are provided in Table 4, under columns titled “BT474-pHER2 EC50”, “N87-pHER2 EC50”, and “NCI-H1781-pHER2 EC50”. Hek293-HER2YVMA ins fall under the heading “HEKYVMA-pHER2 EC50”, Ba/F3 HER2YVMA fall under the heading “Ba/F3 YVMA-pHER2 EC50” and BEAS2B-HER2YVMA fall under the heading “BEAS2B YVMA-pHER2 EC50”.

Experiment [2] deals with EGFR (Homo sapiens, UniProt P00533). Nature of the experiment: EGFR signaling (pEGFR Tyr1068/total EGFR MSD) in A431 cells. The class given is cell-based. On the set-up: endogenous in cells; host or cells: A431, N87. Conditions: for EC50: A431 cells, read-out: A431 pEGFR EC50; for Selectivity A431 EC50/BT474 EC50: ratio A431 pEGFR EC50 to BT474 pHER2 EC50; for Selectivity A431 EC50/HEKYVMA EC50: ratio A431 pEGFR EC50 to HEK YVMA pHER2 EC50. How it is done:
as §1
A431 Cells were plated in 96-well tissue-culture treated plates in full media for 6 h, then starved with media containing 0.1% FBS for overnight. Media was replaced with low serum media (1% FBS) containing compound at 10, 3.3, 1.1, 0.37, 0.12, 0.041, 0.014, 0.005 μM or DMSO control (0.1%). Cells were incubated for 1.5 hr, then stimulated with 100 ng/mL human EGF (PeproTech, Rocky Hill, NJ) for 10 minutes. Cells were washed with cold PBS, and lysed for 30 min on ice in complete MSD lysis buffer (prepared as described in HER2 Signaling Method); lysates were stored at −70° C. until further analysis. EGFR signaling was evaluated using phospho (Tyr 1068)/total EGFR whole cell lysate kit (Meso-Scale Discovery, Gaithersburg, MD). The phospho EGFR signal was normalized to total EGFR for each sample; results are reported as % DMSO control. The normalized data was fitted using a sigmoidal curve analysis program (Graph Pad Prism version 6) with variable Hill slope to determine EC50 values. The results are provided in Table 4, under column titled “A431-pEGFR EC50”.

EGFR, sequence (P00533 25-1210): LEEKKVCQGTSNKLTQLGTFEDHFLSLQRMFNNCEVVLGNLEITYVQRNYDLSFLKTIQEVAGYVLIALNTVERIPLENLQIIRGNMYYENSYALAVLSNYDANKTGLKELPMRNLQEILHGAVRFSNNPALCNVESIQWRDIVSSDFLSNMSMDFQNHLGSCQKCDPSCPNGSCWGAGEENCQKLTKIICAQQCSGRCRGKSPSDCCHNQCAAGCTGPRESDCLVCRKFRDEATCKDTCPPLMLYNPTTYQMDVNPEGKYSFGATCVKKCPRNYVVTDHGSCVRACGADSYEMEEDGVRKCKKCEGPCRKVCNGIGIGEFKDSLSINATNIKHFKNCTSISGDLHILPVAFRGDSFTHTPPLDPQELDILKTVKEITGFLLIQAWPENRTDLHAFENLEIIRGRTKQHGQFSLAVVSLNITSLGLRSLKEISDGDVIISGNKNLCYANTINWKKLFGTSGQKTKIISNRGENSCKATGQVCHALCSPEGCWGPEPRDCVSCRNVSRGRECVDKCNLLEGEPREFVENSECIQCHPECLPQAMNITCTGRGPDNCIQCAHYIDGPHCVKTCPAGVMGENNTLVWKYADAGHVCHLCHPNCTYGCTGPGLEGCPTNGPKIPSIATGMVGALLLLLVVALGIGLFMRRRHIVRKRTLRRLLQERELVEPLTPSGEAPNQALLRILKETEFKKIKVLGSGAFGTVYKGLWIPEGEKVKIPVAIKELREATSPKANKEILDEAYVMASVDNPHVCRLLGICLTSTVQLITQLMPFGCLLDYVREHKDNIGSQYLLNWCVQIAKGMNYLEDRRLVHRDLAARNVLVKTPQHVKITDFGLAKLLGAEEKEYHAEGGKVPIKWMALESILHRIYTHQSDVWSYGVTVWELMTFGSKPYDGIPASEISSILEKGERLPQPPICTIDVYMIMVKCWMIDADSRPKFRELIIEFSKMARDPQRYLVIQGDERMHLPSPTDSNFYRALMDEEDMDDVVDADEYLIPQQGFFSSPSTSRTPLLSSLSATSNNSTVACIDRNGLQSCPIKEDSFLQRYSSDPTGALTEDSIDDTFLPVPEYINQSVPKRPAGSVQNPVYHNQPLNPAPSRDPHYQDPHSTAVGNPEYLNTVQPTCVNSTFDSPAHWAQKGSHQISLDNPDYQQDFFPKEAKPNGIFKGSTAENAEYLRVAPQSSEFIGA
T1 sequence (P04626 23-1255): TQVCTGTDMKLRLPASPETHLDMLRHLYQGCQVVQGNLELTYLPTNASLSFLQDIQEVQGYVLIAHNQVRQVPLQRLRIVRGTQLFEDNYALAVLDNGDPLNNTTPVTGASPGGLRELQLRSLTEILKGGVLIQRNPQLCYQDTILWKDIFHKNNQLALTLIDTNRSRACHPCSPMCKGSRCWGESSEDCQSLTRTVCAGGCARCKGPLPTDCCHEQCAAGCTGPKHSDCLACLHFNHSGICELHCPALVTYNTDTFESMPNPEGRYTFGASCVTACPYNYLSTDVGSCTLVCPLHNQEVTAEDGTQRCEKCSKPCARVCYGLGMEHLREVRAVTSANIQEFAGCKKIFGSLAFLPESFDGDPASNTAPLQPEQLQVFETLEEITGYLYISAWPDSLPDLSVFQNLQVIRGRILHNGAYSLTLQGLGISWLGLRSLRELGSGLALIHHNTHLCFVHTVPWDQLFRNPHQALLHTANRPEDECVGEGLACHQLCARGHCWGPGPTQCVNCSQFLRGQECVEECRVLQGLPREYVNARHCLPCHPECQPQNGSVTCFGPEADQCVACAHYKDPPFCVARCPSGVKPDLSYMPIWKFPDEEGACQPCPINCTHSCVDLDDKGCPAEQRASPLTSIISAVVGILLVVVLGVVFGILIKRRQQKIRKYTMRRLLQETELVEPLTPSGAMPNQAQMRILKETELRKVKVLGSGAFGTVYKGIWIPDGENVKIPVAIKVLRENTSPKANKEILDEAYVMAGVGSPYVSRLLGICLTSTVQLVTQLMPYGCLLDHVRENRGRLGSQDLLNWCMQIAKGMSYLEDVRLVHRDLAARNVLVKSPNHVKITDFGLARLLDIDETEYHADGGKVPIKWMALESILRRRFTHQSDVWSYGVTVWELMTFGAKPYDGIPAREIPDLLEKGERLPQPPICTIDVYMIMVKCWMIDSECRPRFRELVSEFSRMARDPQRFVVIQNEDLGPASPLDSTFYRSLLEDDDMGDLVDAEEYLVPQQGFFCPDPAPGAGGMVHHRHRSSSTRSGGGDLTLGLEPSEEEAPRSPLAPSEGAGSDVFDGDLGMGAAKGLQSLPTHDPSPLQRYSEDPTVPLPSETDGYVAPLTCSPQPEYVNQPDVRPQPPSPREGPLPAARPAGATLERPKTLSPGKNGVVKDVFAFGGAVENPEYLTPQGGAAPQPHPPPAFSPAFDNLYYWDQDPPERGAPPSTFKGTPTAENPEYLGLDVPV

Regarding `Cc1ccc(Oc2ccc(Nc3ncnc4sc5c(c34)CCN(C(=O)/C=C/CN3CC4(CCCC4)C3)C5)cc2C)cn1` [Compound 123], in experiment [1], the EC50 was < 0.1 µM. In experiment [2], the concentration giving a half-maximal response (EC50) lay in the range of 0.1 to 1 µM; the “Selectivity A431 EC50/BT474 EC50” value is “C (C: ≥ 10 and < 20)”; the “Selectivity A431 EC50/HEKYVMA EC50” value is “D (D: ≥ 5 and < 10)”.
As for `Cc1ccc(Oc2ccc(Nc3ncnc4sc5c(c34)CC(C)N(C(=O)C=CCN(C)C)C5C)cc2C)cn1` (single isomer, unassigned) [Compound 162], in experiment [1], the EC50 fell in the range of 0.1 to 0.35 µM. In experiment [2], the concentration giving a half-maximal response (EC50) is > 10 µM; the “Selectivity A431 EC50/BT474 EC50” value was “B (B: ≥ 20 and < 100)”; the “Selectivity A431 EC50/HEKYVMA EC50” value was “B (B: ≥ 20 and < 100)”.
As to `Cc1ccc(Oc2ccc(Nc3ncnc4sc5c(c34)C(C)CN(C(=O)C=CCN(C)C(C)(C)C)C5)cc2C)cn1` (single isomer, unassigned) [Compound 179], in experiment [1], the EC50 is < 0.1 µM. Moreover, in experiment [2], the 50% effective concentration (EC50) was < 0.1 µM; the “Selectivity A431 EC50/BT474 EC50” value is “B (B: ≥ 20 and < 100)”; the “Selectivity A431 EC50/HEKYVMA EC50” value was “E (E: >1 and < 5)”.
As to `Cc1ccc(Oc2ccc(Nc3ncnc4sc5c(c34)CCN(C(=O)/C=C/CN3CC[C@@H](CO)C3)C5)cc2C)cn1` [Compound 132], the EC50 in experiment [1] is < 0.1 µM. For the same compound, in experiment [2], the concentration giving a half-maximal response (EC50) lay within 0.1 to 1 µM; the “Selectivity A431 EC50/BT474 EC50” value is “B (B: ≥ 20 and < 100)”; the “Selectivity A431 EC50/HEKYVMA EC50” value is “C (C: ≥ 10 and < 20)”.
In the case of `Cc1ccc(Oc2ccc(Nc3ncnc4sc5c(c34)CN(C(=O)C=CCN(C)C)C5C)cc2C)cn1` (single isomer, unassigned) [Compound 169], the concentration giving a half-maximal response (EC50) in experiment [1] is < 0.1 µM. In experiment [2], the EC50 is 0.1 to 1 µM; the “Selectivity A431 EC50/BT474 EC50” value was “C (C: ≥ 10 and < 20)”; the “Selectivity A431 EC50/HEKYVMA EC50” value was “D (D: ≥ 5 and < 10)”.
Turning to `Cc1ccc(Oc2ccc(Nc3ncnc4sc5c(c34)C(C)CN(C(=O)/C=C/CN(C)C(C)(C)C)C5)cc2C)cn1` (centres unmarked) [Compound 175], in experiment [1], the concentration for a half-maximal effect (EC50) was < 0.1 µM. For the same compound, in experiment [2], the half-maximal effective concentration (EC50) is < 0.1 µM; the “Selectivity A431 EC50/BT474 EC50” value was “C (C: ≥ 10 and < 20)”; the “Selectivity A431 EC50/HEKYVMA EC50” value was “E (E: >1 and < 5)”.
Consider `Cc1ccc(Oc2ccc(Nc3ncnc4sc5c(c34)CN(C(=O)/C=C/CN(C)C)CC5)cc2C)cn1` [Compound 108, (E)-4-(Dimethylamino)-1-(4-((3-methyl-4-((6-methylpyridin-3-yl)oxy)phenyl)amino)-7,8-dihydropyrido[3′,4′:4,5]thieno[2,3-d]pyrimidin-6(5H)-yl)but-2-en-1-one], for which the 50% effective concentration (EC50) in experiment [1] was < 0.1 µM. Also, in experiment [2], the EC50 is < 0.1 µM; the “Selectivity A431 EC50/BT474 EC50” value is “C (C: ≥ 10 and < 20)”; the “Selectivity A431 EC50/HEKYVMA EC50” value is “C (C: ≥ 10 and < 20)”.
As to `Cc1ccc(Oc2ccc(Nc3ncnc4sc5c(c34)CCN(C(=O)/C=C/CN3CC(F)(CO)C3)C5)cc2C)cn1` [Compound 151], the 50% effective concentration (EC50) in experiment [1] is < 0.1 µM. Also, in experiment [2], the EC50 fell in the range of 0.1 to 1 µM; the “Selectivity A431 EC50/BT474 EC50” value is “B (B: ≥ 20 and < 100)”; the “Selectivity A431 EC50/HEKYVMA EC50” value is “E (E: >1 and < 5)”.
Turning to `Cc1ccc(Oc2ccc(Nc3ncnc4sc5c(c34)CCN(C(=O)/C=C/CN3CC[C@H](CO)C3)C5)cc2C)cn1` [Compound 133], the EC50 in experiment [1] was < 0.1 µM. Moreover, in experiment [2], the 50% effective concentration (EC50) lay within 0.1 to 1 µM; the “Selectivity A431 EC50/BT474 EC50” value is “B (B: ≥ 20 and < 100)”; the “Selectivity A431 EC50/HEKYVMA EC50” value was “C (C: ≥ 10 and < 20)”.
Turning to `Cc1ccc(Oc2ccc(Nc3ncnc4sc5c(c34)C(C)N(C(=O)C=CCN(C)C)C5)cc2C)cn1` (single isomer, unassigned) [Compound 147], in experiment [1], the EC50 is < 0.1 µM. In addition, in experiment [2], the half-maximal effective concentration (EC50) was < 0.1 µM; the “Selectivity A431 EC50/BT474 EC50” value was “B (B: ≥ 20 and < 100)”; the “Selectivity A431 EC50/HEKYVMA EC50” value is “D (D: ≥ 5 and < 10)”.
As for `COc1ccc(Oc2ccc(Nc3ncnc4sc5c(c34)CCN(C(=O)/C=C/CN3CCOCC3)C5)cc2C)cn1` [Compound 164], the EC50 in experiment [1] was < 0.1 µM. In addition, in experiment [2], the 50% effective concentration (EC50) fell in the range of 0.1 to 1 µM; the “Selectivity A431 EC50/BT474 EC50” value is “C (C: ≥ 10 and < 20)”; the “Selectivity A431 EC50/HEKYVMA EC50” value is “D (D: ≥ 5 and < 10)”.
